Test [1] has as its system NA (H3N2, E119V). The format is biochemical, Influenza A virus A/Babol/36/2005(H3N2)(E119V). The settings on record: 200 µM.
For test [2], the system named is NA (H1N1, N295S). Format: biochemical, Influenza A virus A/California/04/2009(H1N1)(N295S). The conditions noted are these: 200 µM.
In test [3] the test system is H1N1 (A/HA-58pdm-TR). Description: microbe, parasite or virus in culture. Format: cell-based, oseltamivir-resistant strain. The conditions noted are these: Influenza A virus, H1N1, MDCK.

On to `C/C(=C\[C@@H](O)C[C@@H](C)[C@H]1CC(=O)[C@@]2(C)C3=C(C(=O)C[C@]12C)[C@@]1(C)CC[C@H](O)C(C)(C)[C@@H]1CC3=O)C(=O)O` [Compound 22, Ganoderic acid Zeta], for which the “Inhibition rate (%) NA(H3N2, E119V)” value in test [1] was determined as 18.7 ± 4.5%. In test [2], the “Inhibition rate (%) NA(H1N1, N295S)” value amounted to 25.5 ± 4.9%.
Taken in the same sequence, the figures for Ganoderenic acid D [Compound 17] were 32.2 ± 3.4% and 13.8 ± 3.1%.
Taken in the same sequence, the figures for `C/C(=C/CC[C@@H](C)[C@H]1CC[C@@]2(C)C3=CC[C@H]4C(C)(C)C(=O)CC[C@]4(C)C3=CC[C@]12C)C(=O)O` [Compound 5, Ganoderic acid S] were 44.9 ± 3.2% and 34.1 ± 2.2%.
Taken in the same sequence, the figures for `C[C@H](CC(=O)C[C@@H](C)[C@H]1C[C@H](O)[C@@]2(C)C3=C(C(=O)C[C@]12C)[C@@]1(C)CC[C@H](O)C(C)(C)[C@@H]1C[C@@H]3O)C(=O)O` [Compound 9, Ganoderic acid C2] were 45.4 ± 1.1% and 13.7 ± 2.4%.
With `C[C@H](CC(=O)C[C@@H](C)[C@H]1C[C@H](O)[C@@]2(C)C3=C(C(=O)C[C@]12C)[C@@]1(C)CCC(=O)C(C)(C)[C@@H]1C[C@@H]3O)C(=O)O` [Compound 7, Ganoderic acid A], in test [1], the “Inhibition rate (%) NA(H3N2, E119V)” value turned out to be 32.1 ± 2.7%. For the same compound, the “Inhibition rate (%) NA(H1N1, N295S)” value in test [2] came out at 15.3 ± 1.8%.
The corresponding values for `C/C(=C\CC[C@@H](C)[C@H]1CC[C@@]2(C)C3=CC[C@H]4C(C)(C)[C@@H](O)CC[C@]4(C)C3=CC[C@]12C)CO` [Compound 26, Ganoderol B] are 19.1 ± 6.1% and 19.9 ± 1.1%.
As to `C/C(=C/CC[C@@H](C)[C@H]1CC[C@@]2(C)C3=CC[C@H]4C(C)(C)C(=O)CC[C@]4(C)C3=CC[C@]12C)C(=O)O` [Compound 4, Ganoderic acid Sz], in test [1], the “Inhibition rate (%) NA(H3N2, E119V)” value is on record as 22.5 ± 0.3%. The “Inhibition rate (%) NA(H1N1, N295S)” value in test [2] is reported as 29.3 ± 5.1%.
Taken in the same sequence, the figures for `C/C(=C\C(=O)CC(C)C(=O)O)C1CC(O)C2(C)C3=C(C(=O)CC12C)C1(C)CCC(O)C(C)(C)C1CC3O` (stereo not shown) [Compound 16, Ganoderenic acid C] were 37.5 ± 2.4% and 13.2 ± 2.2%.
Taken in the same sequence, the figures for `C[C@H](CC[C@H](O)C(C)(C)O)[C@H]1CC[C@@]2(C)C3=CC[C@H]4C(C)(C)C(=O)CC[C@]4(C)C3=CC[C@]12C` [Compound 28, Ganodermanondiol] were 34.2 ± 0.9% and 19.0 ± 4.2%.
Regarding `CC(=O)O[C@H]1C[C@H]([C@H](C)CC/C=C(\C)C(=O)O)[C@@]2(C)CC=C3C(=CC[C@H]4C(C)(C)[C@@H](O)CC[C@]34C)[C@]12C` [Compound 3, Ganoderic acid T-N], the “Inhibition rate (%) NA(H3N2, E119V)” value in test [1] was 43.6 ± 1.2%. Also, in test [2], the “Inhibition rate (%) NA(H1N1, N295S)” value turned out to be 27.5 ± 1.4%.
The corresponding values for `C/C(=C\CC[C@@H](C)[C@H]1CC[C@@]2(C)C3=CC[C@H]4C(C)(C)[C@@H](O)CC[C@]4(C)C3=CC[C@]12C)C(=O)O` [Compound 6, Ganoderic acid Y] are 23.2 ± 3.4% and 16.9 ± 2.8%.
Taken in the same sequence, the figures for `C/C(=C\C(=O)CC(C)C(=O)O)[C@H]1C[C@H](O)[C@@]2(C)C3=C(C(=O)C[C@]12C)[C@@]1(C)CCC(=O)C(C)(C)[C@@H]1C[C@@H]3O` (stereo partly shown) [Compound 8, Ganoderenic acid A] were 29.1 ± 2.3% and 12.4 ± 1.8%.
The corresponding values for `C/C(=C\C(=O)CC(C)C(=O)O)[C@H]1CC(=O)[C@@]2(C)C3=C(C(=O)C[C@]12C)[C@@]1(C)CC[C@H](O)C(C)(C)[C@@H]1CC3=O` (stereo partly shown) [Compound 12, Ganoderenic acid H] are 38.6 ± 2.3% and 12.8 ± 5.1%.
Take `CC(CC(=O)C[C@@H](C)[C@H]1C[C@H](O)[C@@]2(C)C3=C(C(=O)C[C@]12C)[C@@]1(C)CCC(=O)C(C)(C)[C@@H]1CC3)C(=O)O` (stereo partly shown) [Compound 21, Ganolucidic acid A]: in test [1], the “Inhibition rate (%) NA(H3N2, E119V)” value was 22.9 ± 3.8%. For the same compound, in test [2], the “Inhibition rate (%) NA(H1N1, N295S)” value came to 21.0 ± 4.2%.
The corresponding values for `CC(=O)O[C@@H]1C(=O)C2=C(C(=O)C[C@H]3C(C)(C)C(=O)CC[C@]23C)[C@]2(C)C(=O)C[C@H]([C@H](C)CC(=O)CC(C)C(=O)O)[C@@]12C` (stereo partly shown) [Compound 24, Ganoderic acid F] are 19.9 ± 2.6% and 17.6 ± 2.0%.
For `C[C@H](CC[C@H](O)[C@](C)(O)CO)[C@H]1CC[C@@]2(C)C3=CC[C@H]4C(C)(C)C(=O)CC[C@]4(C)C3=CC[C@]12C` [Compound 29, Ganodermanontriol], the “Inhibition rate (%) NA(H3N2, E119V)” value in test [1] is given as 12.2 ± 3.4%. Moreover, the “Inhibition rate (%) NA(H1N1, N295S)” value in test [2] stood at 7.9 ± 3.2%.
Taken in the same sequence, the figures for `C/C(=C\CC[C@@H](C)[C@H]1CC[C@@]2(C)C3=C(CC[C@]12C)[C@@]1(C)CCC(=O)C(C)(C)[C@@H]1CC3=O)C(=O)O` [Compound 20, Ganoderic acid DM] were 28.8 ± 0.5% and 19.0 ± 2.4%.
The corresponding values for `C/C(=C\C(=O)CC(C)C(=O)O)[C@H]1CC(=O)[C@@]2(C)C3=C(C(=O)C[C@]12C)[C@@]1(C)CCC(=O)C(C)(C)[C@@H]1CC3=O` (stereo partly shown) [Compound 15, Ganoderenic acid F] are 24.2 ± 3.9% and 24.4 ± 4.4%.
Taken in the same sequence, the figures for `CC(CC(=O)C[C@@H](C)[C@H]1CC(=O)[C@@]2(C)C3=C(C(=O)[C@@H](O)[C@]12C)[C@@]1(C)CC[C@H](O)C(C)(C)[C@@H]1CC3=O)C(=O)O` (stereo partly shown) [Compound 18, Ganoderic acid C6] were 20.7 ± 0.5% and 17.6 ± 3.5%.
For the compound `CC(=O)O[C@H]1C[C@H]([C@H](C)CC/C=C(\C)C(=O)O)[C@@]2(C)CC=C3C(=CC[C@H]4C(C)(C)C(=O)CC[C@]34C)[C@]12C` [Compound 1, Ganoderic acid T-Q], the “Inhibition rate (%) NA(H3N2, E119V)” value in test [1] was 55.4 ± 4.1%.
Turning to `C/C(=C\CC[C@@H](C)[C@H]1CC[C@@]2(C)C3=CC[C@H]4C(C)(C)C(=O)CC[C@]4(C)C3=CC[C@]12C)CO` [Compound 25, Ganoderol A], the “Inhibition rate (%) NA(H3N2, E119V)” value in test [1] was 18.2 ± 2.7%. For the same compound, the “Inhibition rate (%) NA(H1N1, N295S)” value in test [2] came out at 22.6 ± 1.8%.
`C[C@H](CC(=O)C[C@@H](C)[C@H]1CC(=O)[C@@]2(C)C3=C(C(=O)C[C@]12C)[C@@]1(C)CCC(=O)C(C)(C)[C@@H]1C[C@@H]3O)C(=O)O` [Compound 19, Ganoderic acid C1]: in test [1], the “Inhibition rate (%) NA(H3N2, E119V)” value was found to be 32.0 ± 3.4%. Also, the “Inhibition rate (%) NA(H1N1, N295S)” value in test [2] is 14.7 ± 3.9%.
Taken in the same sequence, the figures for `CC(=O)O[C@@H]1C(=O)C2=C([C@@H](O)C[C@H]3C(C)(C)[C@@H](O)CC[C@]23C)[C@]2(C)C(=O)C[C@H]([C@H](C)CC(=O)CC(C)C(=O)O)[C@@]12C` (stereo partly shown) [Compound 11, Ganoderic acid K] were 33.5 ± 2.4% and 14.2 ± 2.9%.
Regarding `CC(CC(=O)C[C@@H](C)[C@H]1CC(=O)[C@@]2(C)C3=C(C(=O)C[C@]12C)[C@@]1(C)CC[C@H](O)C(C)(C)[C@@H]1CC3=O)C(=O)O` (stereo partly shown) [Compound 10, Ganoderic acid AM1], the “Inhibition rate (%) NA(H3N2, E119V)” value in test [1] is listed as 31.3 ± 3.2%. Further, the “Inhibition rate (%) NA(H1N1, N295S)” value in test [2] is on record as 9.3 ± 1.6%.
Taken in the same sequence, the figures for `C/C(C=O)=C\CC[C@@H](C)[C@H]1CC[C@@]2(C)C3=C(CC[C@]12C)[C@@]1(C)CCC(=O)C(C)(C)[C@@H]1CC3=O` [Compound 31, Lucialdehyde B] were 43.3 ± 1.0% and 11.2 ± 1.3%.
As for `C[C@H](CCC=C(CO)CO)[C@H]1CC[C@@]2(C)C3=CC[C@H]4C(C)(C)C(=O)CC[C@]4(C)C3=CC[C@]12C` [Compound 27, Ganoderiol F], the “Inhibition rate (%) NA(H3N2, E119V)” value in test [1] amounted to 16.8 ± 1.2%. The “Inhibition rate (%) NA(H1N1, N295S)” value in test [2] was 9.5 ± 4.5%.
The corresponding values for `C/C(C=O)=C\CC[C@@H](C)[C@H]1CC[C@@]2(C)C3=CC[C@H]4C(C)(C)[C@@H](O)CC[C@]4(C)C3=CC[C@]12C` [Compound 30, Lucialdehyde A] are 25.9 ± 8.1% and 5.8 ± 2.4%.
The corresponding values for `C/C(=C\[C@@H](O)C[C@@H](C)[C@H]1CC(=O)[C@@]2(C)C3=C(C(=O)C[C@]12C)[C@@]1(C)CCC(=O)C(C)(C)[C@@H]1C[C@@H]3O)C(=O)O` [Compound 23, Ganoderic acid LM2] are 12.9 ± 1.0% and 15.4 ± 0.6%.
As to `C/C(=C\CC[C@@H](C)[C@H]1C[C@H](O)[C@@]2(C)C3=CC[C@H]4C(C)(C)C(=O)CC[C@]4(C)C3=CC[C@]12C)C(=O)O` [Compound 2, Ganoderic acid TR], the “Inhibition rate (%) NA(H3N2, E119V)” value in test [1] is reported as 59.2 ± 1.9%. In test [3], this compound showed an IC50 of 245 µM.
For `CC(=O)O[C@@H]1C(=O)C2=C(C(=O)C[C@H]3C(C)(C)[C@@H](O)CC[C@]23C)[C@]2(C)C(=O)C[C@H]([C@H](C)CC(=O)CC(C)C(=O)O)[C@@]12C` (stereo partly shown) [Compound 13, Ganoderic acid H], the “Inhibition rate (%) NA(H3N2, E119V)” value in test [1] is listed as 27.9 ± 1.5%. Moreover, the “Inhibition rate (%) NA(H1N1, N295S)” value in test [2] is 16.9 ± 2.4%.
The corresponding values for `CC(CC(=O)C[C@@H](C)[C@H]1CC(=O)[C@@]2(C)C3=C(C(=O)C[C@]12C)[C@@]1(C)CC[C@H](O)C(C)(C)[C@@H]1C[C@@H]3O)C(=O)O` (stereo partly shown) [Compound 14, Ganoderic acid B] are 38.7 ± 1.6% and 12.8 ± 1.4%.

Broadly, the IC50 is the point on the concentration scale where inhibition reaches its midpoint. A higher IC50 goes with weaker potency.

The values are drawn from publication PMC4549708, “Inhibition of neuraminidase by Ganoderma triterpenoids and implications for neuraminidase inhibitor design” (Scientific Reports, 2015).
